The results in this text go back to paper PMC7727793, “Aggregation Behavior, Antibacterial Activity and Biocompatibility of Catanionic Assemblies Based on Amino Acid-Derived Surfactants” (International Journal of Molecular Sciences, 2020).

For one assay, the system named is A431 cell line. In words: MTT cell viability assay. In kind it is cell-based. On the procedure:
(§1) The murine Swiss albino fibroblast (3T3), the squamous carcinoma (A431), the immortal human keratinocyte (HaCaT) and the human epithelial carcinoma (HeLa) cell lines were obtained from Celltec UB. Cells were grown in Dulbecco’s Modified Eagle’s Medium (DMEM) (4.5 g/L glucose) supplemented with 10% (v/v) fetal bovine serum (FBS), 1% (v/v) L-glutamine solution (200 mM) and 1% (v/v) penicillin-streptomycin solution (10,000 U/mL penicillin and 10 mg/mL streptomycin) at 37 °C and 5% CO2 (CO2 Incubator Nuaire, Plymouth, MN, USA). All the biological materials were purchased from Lonza (Verviers, Belgium). Cells were cultured in 75 cm^2 culture flasks (TPP, Trasadingen, Switzerland) and were routinely split using trypsin-EDTA (ethylenediaminetetraacetate) solution (170,000 U/L trypsin and 0.2 g/L EDTA) (Lonza, Verviers, Belgium) when cells are approximately 80% confluent. […]
(§2) In this assay, living cells reduce the yellow tetrazolium salt, 2,5-Diphenyl-3, -(4,5-dimethyl-2-thiazolyl) tetrazolium bromide (MTT), to insoluble purple formazan crystals. […] Then, the absorbance of the resulting solutions was measured at 550 nm using a Bio-Rad 550 microplate reader (Hercules, California, USA). The effect of each treatment was calculated as the percentage of tetrazolium salt reduction by viable cells against the untreated cell control (cells with medium only).

For assay [1], the system named is all microorganisms tested. The experiment in a line: Broth microdilution MIC, statement for all microorganisms tested. Type of assay: cell-based. To be noted: for Antibacterial activity (in words): tested microorganisms. On the procedure: Antibacterial assays were conducted in vitro using the broth microdilution method. The minimum inhibitory concentration (MIC) is the smallest concentration of antibacterial agent at which bacterial growth is not observed. MIC values were determined for 4 Gram-positive bacteria (methicillin-resistant Staphylococcus aureus ATCC 43300 (MRSA), Bacillus subtilis ATCC 6633, Kocuria rhizophila 9341, Staphylococcus epidermidis ATCC 12228), 3 Gram-negative bacteria (Klebsiella pneumoniae ATCC 4532, Pseudomonas aeruginosa ATCC 27853, Escherichia coli ATCC 8739) and the fungal strain, Candida albicans ATCC 10231. Frozen stocks of bacteria were incubated on Muller Hinton agar plates for 24 h at 37 °C. From this culture, a bacterial suspension of 1 × 10^6 colony forming units CFU/mL was prepared in MHB (pH = 7.3). Two dilutions of pure surfactants and their binary mixtures were prepared in MH broth to obtain a final concentration ranging from 4 to 454 μM in the microtiter plates.
Then, 10 μL of nutrient broth culture of each microorganism was added to achieve a final density of ca. 5 × 10^5 CFU/mL. The cultures were incubated for 24 h at 37 °C. Every assay was repeated three times.

Assay [2] has as its system 3T3 cell line. The experiment in a line: NRU cell viability assay. Type of assay: cell-based, murine. To be noted: 3T3, NRU, 24 h. The method, then: The murine Swiss albino fibroblast (3T3), the squamous carcinoma (A431), the immortal human keratinocyte (HaCaT) and the human epithelial carcinoma (HeLa) cell lines were obtained from Celltec UB. Cells were grown in Dulbecco’s Modified Eagle’s Medium (DMEM) (4.5 g/L glucose) supplemented with 10% (v/v) fetal bovine serum (FBS), 1% (v/v) L-glutamine solution (200 mM) and 1% (v/v) penicillin-streptomycin solution (10,000 U/mL penicillin and 10 mg/mL streptomycin) at 37 °C and 5% CO2 (CO2 Incubator Nuaire, Plymouth, MN, USA). All the biological materials were purchased from Lonza (Verviers, Belgium). Cells were cultured in 75 cm^2 culture flasks (TPP, Trasadingen, Switzerland) and were routinely split using trypsin-EDTA (ethylenediaminetetraacetate) solution (170,000 U/L trypsin and 0.2 g/L EDTA) (Lonza, Verviers, Belgium) when cells are approximately 80% confluent. 3T3 and HaCaT cells (1 × 10^5 cells/ mL) and HeLa and A431 cells (5 × 10^4 cells/mL) were grown at the defined densities into the central 60 wells of a 96-well plate. Cells were incubated for 24 h under 5% CO2 at 37 °C. […] Agitation, determination of the absorbance of the extracted solution and effect of each treatment in comparison with control cells were analogous of those described in the case of the MTT method.

A further assay deals with HaCaT cell line. The experiment in a line: MTT cell viability assay. Type of assay: cell-based, human. To be noted: 24 h. On the procedure: (§3) The murine Swiss albino fibroblast (3T3), the squamous carcinoma (A431), the immortal human keratinocyte (HaCaT) and the human epithelial carcinoma (HeLa) cell lines were obtained from Celltec UB. Cells were grown in Dulbecco’s Modified Eagle’s Medium (DMEM) (4.5 g/L glucose) supplemented with 10% (v/v) fetal bovine serum (FBS), 1% (v/v) L-glutamine solution (200 mM) and 1% (v/v) penicillin-streptomycin solution (10,000 U/mL penicillin and 10 mg/mL streptomycin) at 37 °C and 5% CO2 (CO2 Incubator Nuaire, Plymouth, MN, USA). All the biological materials were purchased from Lonza (Verviers, Belgium). Cells were cultured in 75 cm^2 culture flasks (TPP, Trasadingen, Switzerland) and were routinely split using trypsin-EDTA (ethylenediaminetetraacetate) solution (170,000 U/L trypsin and 0.2 g/L EDTA) (Lonza, Verviers, Belgium) when cells are approximately 80% confluent.
(§4) 3T3 and HaCaT cells (1 × 10^5 cells/ mL) and HeLa and A431 cells (5 × 10^4 cells/mL) were grown at the defined densities into the central 60 wells of a 96-well plate. Cells were incubated for 24 h under 5% CO2 at 37 °C. Then, the spent medium was removed, and cells were incubated during 24 h with the corresponding surfactant systems, previously diluted 50% (v/v) in DMEM medium supplemented with 5% FBS (100 µL).
(§5) In this assay, living cells reduce the yellow tetrazolium salt, 2,5-Diphenyl-3, -(4,5-dimethyl-2-thiazolyl) tetrazolium bromide (MTT), to insoluble purple formazan crystals. After the cells were incubated for 24 h with the corresponding systems, the medium was removed and 100 µL (5 mg/mL) of 2,5-Diphenyl-3,-(4,5-dimethyl-2-thiazolyl) tetrazolium bromide (MTT) (Sigma–Aldrich, St. Louis, MO, USA) in phosphate-buffered saline (PBS) (Lonza, Verviers, Belgium), diluted 1:10 in culture medium without phenol red and absence of FBS (Lonza, Verviers, Belgium), was added to the cells. The plates were incubated for 3 h, after which the medium was removed. Thereafter, 100 µL of dimethylsulfoxide (DMSO) (Sigma–Aldrich, St. Louis, MO, USA) was added to each well to dissolve the purple formazan crystals. Plates were then placed in a microtiter-plate shaker for 5 min at room temperature to help the total dissolution. Then, the absorbance of the resulting solutions was measured at 550 nm using a Bio-Rad 550 microplate reader (Hercules, California, USA). The effect of each treatment was calculated as the percentage of tetrazolium salt reduction by viable cells against the untreated cell control (cells with medium only).

For the next assay, the system named is HeLa cell line. The experiment in a line: MTT cell viability assay. Type of assay: cell-based, human. To be noted: 24 h. On the procedure:
as §3, §4, §5

Assay [3] relates to 3T3 cell line. In words: MTT cell viability assay. Type of assay: cell-based, murine. To be noted: 3T3, MTT, 24 h. The method, then: as §1, §2

Bounds are passed on as bounds.

Turning to “N(π),N(τ)-bis(methyl)-L-Histidine tetradecyl amide [DMHNHC14]”, the IC50 in the assay on A431 cell line (24 h) was determined as 22.6 µM; with 3T3 cell line [2], 26.1 µM; in the assay with HaCaT cell line, 25.5 µM; in the assay on HeLa cell line, 3.37 µM; in the assay on 3T3 cell line [3], 17.1 µM. Besides, the “Antibacterial activity (in words)” value in assay [1] is “broad spectrum of antibacterial activity”.

As to `CCCCCCCCCCCCCC(=O)O` [Sodium myristate, sodium myristate], the IC50 in the assay with A431 cell line (Homo sapiens, A-431, 24 h) was above 50 µM; with 3T3 cell line [2] (Mus musculus, NIH3T3), above 50 µM; in the assay with HaCaT cell line (Homo sapiens) it was above 50 µM; with HeLa cell line (Homo sapiens), above 50 µM; in the assay on 3T3 cell line [3] (Mus musculus, NIH3T3), above 50 µM. Also, the MIC in assay [1] (read-out: MIC for all microorganisms tested) is above 113 µM. The “Antibacterial activity (in words)” value in assay [1] is “did not show activity”.
